How the values were obtained:
[1] = Pharmacokinetics following PO administration of Compound KC-55 to rats (Example 48)
trypsin = molecular target: T1, trypsin (Bos taurus, UniProt P00760); experiment: In vitro trypsin-mediated cleavage of hydrocodone prodrugs (Example 44); type: biochemical, bovine; settings: conditions as Example 39
T1 construct: purchased Sigma-Aldrich T8003; host or cells: bovine pancreas
T1 sequence (P00760 24-246): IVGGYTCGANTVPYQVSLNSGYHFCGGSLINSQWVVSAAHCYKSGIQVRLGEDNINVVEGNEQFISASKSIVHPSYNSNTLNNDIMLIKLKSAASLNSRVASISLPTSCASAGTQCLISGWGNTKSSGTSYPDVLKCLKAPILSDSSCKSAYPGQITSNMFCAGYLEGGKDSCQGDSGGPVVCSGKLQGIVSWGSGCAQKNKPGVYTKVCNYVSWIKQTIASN
Method: The reactions were conducted at 37° C. for 24 h. Samples were collected at specified time points, transferred into 0.5% formic acid in acetonitrile to stop trypsin activity, and stored at less than −70° C. until analysis by LC-MS/MS.

[2] = Spacer leaving group cyclization release rate in pH 7.4 phosphate buffer (Example 39); settings: 2.18 mM, 50 mM pH 7.4 phosphate buffer, 20° C.
[3] = Oral administration of hydrocodone prodrugs co-dosed with Compound 109 to rats (Example 46); settings: co-dosed PO with KC-40 or KC-50 to rats
[4] = Oral administration of oxycodone prodrugs co-dosed with trypsin inhibitor Compound 109 to rats (Example 40); type: in vivo; settings: co-dosed PO with KC-12 or KC-17 to rats

COc1ccc2c3c1O[C@H]1C(OC(=O)N4CCC(C(=O)O)CC4CNC(=O)[C@H](CCCNC(=N)N)NC(=O)CNC(C)=O)=CC[C@@]4(O)[C@@H](C2)N(C)CC[C@]314 (stereo partly drawn) [Compound KC-55, N-(oxycodone-6-enol-carbonyl)-[(2-methylamino)-piperidine-4-carboxylate]-L-arginine-glycine-acetate]
release of oxycodone on oral administration ([1]; PO to rats): leads to release of oxycodone

N-(hydrocodone-6-enol-carbonyl)-(2-methylamino)piperidine-4-carboxylate]-L-arginine-glycine-acetate [Compound KC-40]
HC formation rate (trypsin): 0.003 ± 0.00 μmol/h/BAEE U

COc1ccc2c3c1O[C@H]1C(OC(=O)N4CCCCC4CN)=CC[C@@]4(O)[C@@H](C2)N(C)CC[C@]314 (single isomer, unassigned; peak a) [KC-11 peak A, N-(oxycodone-6-enol-carbonyl)piperidine-2-methylamine]
half-life (cyclization; compound disappearance) [2]: 1.30 ± 0.038 h

N=C(N)c1ccc2cc(OC(=O)c3ccc(N=C(N)N)cc3)ccc2c1 [Compound 109, 6-carbamimidoylnaphthalen-2-yl 4-(diaminomethyleneamino)benzoate]
effect of trypsin inhibitor on release of hydrocodone [3]: attenuate release of hydrocodone by prodrugs of the embodiments
effect of trypsin inhibitor on release of oxycodone [4]: attenuate release of oxycodone by prodrugs of the embodiments

COc1ccc2c3c1O[C@H]1C(=O)CC[C@@]4(O)[C@@H](C2)N(C)CC[C@]314 [Oxycodone, oxycodone, reference compound]
Cmax ([1]; male, Sprague Dawley, rat, plasma, po, 10 mg/kg): 14.7 ± 6.5 ng/mL

COc1ccc2c3c1O[C@H]1C(OC(=O)N4CCCCC4CN)=CC[C@@]4(O)[C@@H](C2)N(C)CC[C@]314 (single isomer, unassigned; peak b) [KC-11 peak B, N-(oxycodone-6-enol-carbonyl)piperidine-2-methylamine]
half-life (cyclization; compound disappearance) [2]: 0.876 ± 0.012 h
